Experiment: solvent given as SMILES

SMILES: COc1cc(OC)cc(-c2ccc(-c3ccc(C#N)s3)s2)c1
- absorption maximum (in C1CCCCC1): 360 nm
- absorption maximum (in C1COCCO1): 366 nm
- absorption maximum (in CC#N): 364 nm
- absorption maximum (in CC(C)O): 365 nm
- absorption maximum (in CCCCO): 367 nm
- absorption maximum (in CCO): 365 nm
- absorption maximum (in CCOC(C)=O): 365 nm
- absorption maximum (in CN(C)C=O): 370 nm
- absorption maximum (in CO): 364 nm
- absorption maximum (in CS(C)=O): 372 nm
- absorption maximum (in Cc1ccccc1): 366 nm
- absorption maximum (in ClC(Cl)Cl): 367 nm
- absorption maximum (in ClCCl): 366 nm
- absorption maximum (in O): 337 nm

SMILES: O=S(=O)([O-])c1ccc2c([O-])cc(S(=O)(=O)[O-])cc2c1
- absorption maximum (in O): 350 nm

SMILES: CN(C)c1ccc2c(c1)C(=O)NC2=O
- absorption maximum (in C1CCOC1): 377 nm
- absorption maximum (in C1COCCO1): 378 nm
- absorption maximum (in CC#N): 388 nm
- absorption maximum (in CC(C)(C)O): 387 nm
- absorption maximum (in CC(C)=O): 382 nm
- absorption maximum (in CC(C)O): 389 nm
- absorption maximum (in CCOCC): 371 nm
- absorption maximum (in CO): 396 nm
- absorption maximum (in O): 408 nm

SMILES: CC(C)(C)c1ccc(-c2cc(-c3ccc(-c4cc(-c5ccc(C(C)(C)C)cc5)c(C(=O)N5CCCCC5)s4)s3)sc2C(=O)N2CCCCC2)cc1
- absorption maximum (in ClCCl): 378 nm

SMILES: CCCc1c(C(=O)c2ccc3c4c(cccc24)-c2cccc4c2C3CC=C4)c2ccc3cccc4c5cccc6ccc1c(c65)c2c34 (configuration not stated)
- absorption maximum (in ClCCl): 468 nm

SMILES: F[B-]1(F)n2cccc2C=C2C=CC=[N+]21
- absorption maximum (in C1CCCCC1): 503.5 nm
- absorption maximum (in CC(C)=O): 497.5 nm
- absorption maximum (in CCCCCC): 502 nm
- absorption maximum (in CCO): 498 nm
- absorption maximum (in CCOC(C)=O): 498 nm
- absorption maximum (in CO): 497 nm
- absorption maximum (in ClCCl): 503 nm
- absorption maximum (in OCC(F)(F)F): 497 nm

SMILES: N#Cc1ccc(-c2cn3cc(-c4ccccc4)c[n+]3[n-]2)cc1
- absorption maximum (in ClCCl): 383 nm

SMILES: CCN(CC)c1ccc2cc(C#N)/c(=N\C(=O)c3ccco3)oc2c1
- absorption maximum (in CCO): 424 nm
- absorption maximum (in ClCCl): 430 nm

SMILES: Cc1cc(C)c(C2=C3C=C(c4ccccc4)C(c4ccccc4)=[N+]3[B-](F)(F)n3c2cc(-c2ccccc2)c3-c2ccccc2)c(C)c1
- absorption maximum (in C1CCCCC1): 590 nm
- absorption maximum (in C1CCOC1): 587 nm
- absorption maximum (in CC#N): 578 nm
- absorption maximum (in Cc1ccccc1): 592 nm
- absorption maximum (in ClCCl): 585 nm

SMILES: CCCCC1(CCCC)c2cc(C#Cc3ccc(C=C(c4ccccc4)c4ccccc4)cc3)ccc2-c2ccc(C#Cc3ccc(C=C(c4ccccc4)c4ccccc4)cc3)cc21
- absorption maximum (in C1CCOC1): 376 nm

SMILES: CC(C)[Si](C#Cc1c2cc3ccccc3cc2c(C#Cc2ccccc2)c2cc3ccccc3cc12)(C(C)C)C(C)C
- absorption maximum (in ClCCl): 652 nm

SMILES: CCCCCCn1c(=O)c2c3oc4ccccc4sc3c3c(=O)n(CCCCCC)c(=O)c3c2c1=O
- absorption maximum (in ClCCl): 437 nm

SMILES: C(#Cc1cc2ccc3cccc4ccc(c1)c2c34)c1ccccc1
- absorption maximum (in Cc1ccccc1): 390 nm

SMILES: CC1(C)c2ccccc2N(c2ccccc2)c2ccc(C(=O)c3ccc4c(c3)C(C)(C)c3ccccc3N4c3ccccc3)cc21
- absorption maximum (in Cc1ccccc1): 371.57 nm

SMILES: C/C=C/C=C/C1=NC(=C\c2ccc(O)cc2)/C(=O)N1C
- absorption maximum (in ClC(Cl)Cl): 425 nm
- absorption maximum (in O): 421 nm

SMILES: CC1(C)CC(=O)C2=C(C1)Oc1ccc3ccc(O)cc3c1C2c1ccccn1 (configuration not stated)
- absorption maximum (in C1CCOC1): 335 nm
- absorption maximum (in C1COCCO1): 335 nm
- absorption maximum (in CC#N): 334 nm
- absorption maximum (in CCCCCCC): 276 nm
- absorption maximum (in CCO): 334 nm
- absorption maximum (in CO): 341 nm
- absorption maximum (in O): 274 nm

SMILES: CN(C)c1ccc(/C=C/c2cc3ccccc3c[n+]2C)cc1
- absorption maximum (in CC(C)=O): 425 nm
- absorption maximum (in ClCCl): 441 nm

SMILES: Cc1cc2ccccc2c2c1c1ccccc1n2-c1ccccc1
- absorption maximum (in ClCCl): 303 nm

SMILES: c1cc2ccc3sc4ccc5cccc6c(c1)c2c3c4c56
- absorption maximum (in ClC(Cl)Cl): 412 nm

SMILES: CCCCCCCCCCCCCCCCn1c(-c2cc(-c3nc4ccc(C)cc4n3CCCCCCCCCCCCCCCC)cc(-c3nc4ccc(C)cc4n3CCCCCCCCCCCCCCCC)c2)nc2ccc(C)cc21
- absorption maximum (in ClCCl): 306 nm

SMILES: CN(C)c1ccc(/C=C/c2cc(/C=C/c3ccc(N(C)C)cc3)nc(/C=C/c3ccc(N(C)C)cc3)n2)cc1
- absorption maximum (in ClCCl): 402 nm

— the Deep4Chem optical property database
